Source: ChEMBL document CHEMBL1201862, “PubChem BioAssay data set” (2004)
Active and inactive are the calls of the source.

Assays:
[1] = A Cell-Based Confirmatory Screen for Compounds that Inhibit VEEV, TC-83 (7).; assay type: functional
[2] = Late stage assay provider results from the probe development effort to identify selective inhibitors of heat shock protein 90 (HSP90): Absorbance-based cell proliferation assay in SKBR3 cells.; assay type: functional; conditions: SK-BR-3
[3] = Late stage assay provider results from the probe development effort to identify selective inhibitors of heat shock protein 90 (HSP90): Absorbance-based cell proliferation assay in MCF7 cells.; assay type: functional
[4] = biological target: Potassium channel subfamily K member 9 (Homo sapiens, UniProt Q9NPC2); assay: KCNK9 flux blockade, concentration-response – cell-based, FluxOR thallium flux, selectivity assay for TASK1 inhibitor project, SAR follow-up (AID 652211); assay type: functional;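 further: potency is for inhibitors of the channel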
[5] = biological target: Potassium voltage-gated channel subfamily KQT member 2 (Rattus norvegicus, UniProt O88943); assay: block of rat KCNQ2 potassium channel – cell-based, FluxOR thallium flux, concentration-response, selectivity assay for TASK1 inhibitor project, SAR follow-up (AID 652192); assay type: functional
[6] = biological target: Potassium channel subfamily K member 3 (Homo sapiens, UniProt O14649); assay: inhibition of human KCNK3 channel flux – CHO cells, FluxOR thallium flux, SAR follow-up (AID 652212); assay type: functional
[7] = biological target: T1, Beta-lactamase (Pseudomonas aeruginosa, UniProt Q79MP6); assay: inhibition of IMP-1 beta-lactamase activity – biochemical, epi-absorbance, selectivity assay for VIM-2 inhibitor project, dose response (AID 1920)
[8] = biological target: T2, High affinity choline transporter 1 (Homo sapiens, UniProt Q9GZV3); assay: human choline transporter blockers, potency – cell-based, 10-point CRC, membrane potential dye, dose response (AID 588401); assay type: functional;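 further: membrane potential dye fluorescence of choline-evoked depolarization via CHT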
T2 sequence (Q9GZV3 whole entry): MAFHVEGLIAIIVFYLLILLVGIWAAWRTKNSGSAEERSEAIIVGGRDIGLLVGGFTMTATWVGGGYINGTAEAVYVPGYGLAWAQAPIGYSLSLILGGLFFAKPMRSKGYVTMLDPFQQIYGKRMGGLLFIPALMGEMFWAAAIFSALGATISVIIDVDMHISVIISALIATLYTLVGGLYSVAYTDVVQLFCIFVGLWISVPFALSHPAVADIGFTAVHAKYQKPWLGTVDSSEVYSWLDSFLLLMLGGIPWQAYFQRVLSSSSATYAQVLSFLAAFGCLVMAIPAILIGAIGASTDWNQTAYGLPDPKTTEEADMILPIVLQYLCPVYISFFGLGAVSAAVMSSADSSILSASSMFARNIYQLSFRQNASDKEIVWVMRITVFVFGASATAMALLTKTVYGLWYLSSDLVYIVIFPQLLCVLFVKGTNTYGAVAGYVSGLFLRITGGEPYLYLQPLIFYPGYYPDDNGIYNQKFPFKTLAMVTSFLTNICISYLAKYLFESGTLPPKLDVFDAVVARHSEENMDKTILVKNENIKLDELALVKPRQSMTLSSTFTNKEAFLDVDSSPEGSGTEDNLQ

[9] = biological target: Beta-lactamase (Salmonella choleraesuis (strain SC-B67), UniProt Q5J463); assay: Epi-absorbance-based counterscreen for selective VIM-2 inhibitors: dose response biochemical high throughput screening assay to identify inhibitors of TEM-1 serine-beta-lactamase.
[10] = biological target: T1, Beta-lactamase; assay: […] counterscreen for selective VIM-2 inhibitors: dose response biochemical high throughput screening assay to identify inhibitors of IMP-1 metallo-beta-lactamase.
[11] = biological target: T3, Estrogen receptor (Homo sapiens, UniProt P03372);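 further: potency for inhibiting coactivator peptide recruitment to the receptor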
T3 sequence (P03372 whole entry): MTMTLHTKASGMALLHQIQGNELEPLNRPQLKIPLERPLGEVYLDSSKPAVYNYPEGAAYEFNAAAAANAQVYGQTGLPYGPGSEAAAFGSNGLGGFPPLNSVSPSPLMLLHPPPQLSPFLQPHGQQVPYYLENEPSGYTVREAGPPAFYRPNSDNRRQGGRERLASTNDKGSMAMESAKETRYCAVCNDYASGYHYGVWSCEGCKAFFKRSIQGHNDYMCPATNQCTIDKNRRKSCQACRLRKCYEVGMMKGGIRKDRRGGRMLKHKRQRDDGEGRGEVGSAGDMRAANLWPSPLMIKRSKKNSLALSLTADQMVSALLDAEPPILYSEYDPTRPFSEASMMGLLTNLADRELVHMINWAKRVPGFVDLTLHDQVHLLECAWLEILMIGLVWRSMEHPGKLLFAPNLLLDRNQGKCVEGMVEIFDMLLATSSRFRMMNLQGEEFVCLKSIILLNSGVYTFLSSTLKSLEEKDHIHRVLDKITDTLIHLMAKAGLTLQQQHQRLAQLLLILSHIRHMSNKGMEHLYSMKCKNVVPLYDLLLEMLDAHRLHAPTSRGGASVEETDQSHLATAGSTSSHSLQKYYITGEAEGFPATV

[12] = biological target: T2, High affinity choline transporter 1; assay: human choline transporter blockers, potency – cell-based, 5-point CRC, membrane potential dye, dose response (AID 504840); assay type: functional
[13] = cells; assay type: functional, cell-based; conditions: HEK-CNG
[14] = biological target: Galanin receptor type 3 (Homo sapiens, UniProt O60755); assay: Fluorescence-based cell-based primary high throughput dose response assay to identify antagonists of the Galanin Receptor 3 (GalR3).; assay type: functional
[15] = activation of miR-122 Renilla sensor silencing – cell-based, Huh7 psiCHECK-miR122, Renilla luciferase, cherry-picked, dose response (AID 651956); assay type: functional;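 further: huh7 hepatoma cells stably carrying a psiCHECK-2 miR-122 sensor plasmid; renilla luciferase signal reporting endogenous miR-122 activity after 48 h compound exposure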
[16] = general mammalian cell viability loss – activator set, cherry-pick, cytotoxicity control for miR-122 modulator project, dose response (AID 720690); assay type: functional, cell-based;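 further: HEK293T human cells scored for general mammalian cytotoxicity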
[17] = biological target: Major prion protein (Homo sapiens, UniProt P04156); assay type: functional, cell-based
[18] = cells
[19] = biological target: T4, Trace amine-associated receptor 1 (Homo sapiens, UniProt Q96RJ0); assay: Counterscreen for agonists of the human trace amine associated receptor 1 (hTAAR1): Fluorescence-based cell-based high throughput dose response assay to identify hTAAR1 agonist that also desensitize TAAR1 receptor response.; assay type: functional
[20] = cells; assay type: functional, cell-based
[21] = biological target: T4, Trace amine-associated receptor 1; assay: Fluorescence-based cell-based high throughput dose response assay to identify agonists of the human trace amine associated receptor 1 (TAAR1).; assay type: functional
[22] = cells; assay type: functional, cell-based; remark: listed apart in the source
[23] = biological target: T5, Sentrin-specific protease 8 (Homo sapiens, UniProt Q96LD8); assay type: functional
T5 sequence (Q96LD8 whole entry): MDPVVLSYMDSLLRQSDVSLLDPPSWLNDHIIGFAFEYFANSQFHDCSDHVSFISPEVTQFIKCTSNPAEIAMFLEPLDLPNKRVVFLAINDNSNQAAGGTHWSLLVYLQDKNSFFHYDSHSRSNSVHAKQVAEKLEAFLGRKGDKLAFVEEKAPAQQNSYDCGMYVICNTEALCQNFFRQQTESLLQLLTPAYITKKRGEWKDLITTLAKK

[24] = biological target: T6, Protein RecA (Mycobacterium tuberculosis, UniProt P9WHJ3); assay: Fluorescence Cell-Free Homogeneous Dose Retest to Identify Inhibitors of RecA-Intein Splicing Activity. [Related pubchem assays (depositor defined):AID2097, AID2223, AID489010, AID492950]; assay type: functional
T6 sequence (P9WHJ3 whole entry): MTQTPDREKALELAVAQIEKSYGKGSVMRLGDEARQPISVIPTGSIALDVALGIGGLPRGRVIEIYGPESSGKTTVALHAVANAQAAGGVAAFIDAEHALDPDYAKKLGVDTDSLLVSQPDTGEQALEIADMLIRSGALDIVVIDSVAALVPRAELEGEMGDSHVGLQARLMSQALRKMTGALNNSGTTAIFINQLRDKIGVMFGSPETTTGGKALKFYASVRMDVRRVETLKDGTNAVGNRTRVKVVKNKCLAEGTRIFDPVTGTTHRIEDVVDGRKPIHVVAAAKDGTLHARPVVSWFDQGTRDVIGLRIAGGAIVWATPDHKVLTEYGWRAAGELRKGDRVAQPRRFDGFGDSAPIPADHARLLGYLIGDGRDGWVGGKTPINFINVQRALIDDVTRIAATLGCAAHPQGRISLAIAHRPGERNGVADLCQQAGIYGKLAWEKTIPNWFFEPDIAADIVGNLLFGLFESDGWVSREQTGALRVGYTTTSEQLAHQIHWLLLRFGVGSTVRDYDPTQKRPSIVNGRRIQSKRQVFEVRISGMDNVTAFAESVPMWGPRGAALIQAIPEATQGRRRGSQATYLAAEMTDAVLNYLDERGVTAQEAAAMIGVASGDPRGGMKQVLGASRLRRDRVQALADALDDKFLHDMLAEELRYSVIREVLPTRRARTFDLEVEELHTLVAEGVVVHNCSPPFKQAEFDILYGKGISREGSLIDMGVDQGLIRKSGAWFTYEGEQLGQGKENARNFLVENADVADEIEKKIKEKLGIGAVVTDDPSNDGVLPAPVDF

[25] = biological target: T7, Caspase-3 (Homo sapiens, UniProt P42574); assay: Dose-response confirmation of uHTS inhibitor hits of Sentrin-Specific Protease 8 in a Caspase-3 Fluorescence assay.; assay type: functional
T7 sequence (P42574 whole entry): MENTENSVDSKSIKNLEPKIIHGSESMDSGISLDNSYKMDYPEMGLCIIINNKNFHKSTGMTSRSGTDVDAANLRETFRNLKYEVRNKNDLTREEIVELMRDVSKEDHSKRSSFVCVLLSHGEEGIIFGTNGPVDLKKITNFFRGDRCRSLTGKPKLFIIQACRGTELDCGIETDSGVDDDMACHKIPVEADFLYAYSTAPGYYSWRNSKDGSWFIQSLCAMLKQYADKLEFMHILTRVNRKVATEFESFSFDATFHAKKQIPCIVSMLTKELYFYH

[26] = biological target: T5, Sentrin-specific protease 8; assay type: functional; remark: listed apart in the source
[27] = biological target: T8, Replicative DNA helicase DnaB (Mycobacterium tuberculosis, UniProt P9WMR3); assay: DnaB intein splicing inhibitors, dose response, biochemical, cell-free fluorescence (AID 449749); assay type: functional
T8 sequence (P9WMR3 whole entry): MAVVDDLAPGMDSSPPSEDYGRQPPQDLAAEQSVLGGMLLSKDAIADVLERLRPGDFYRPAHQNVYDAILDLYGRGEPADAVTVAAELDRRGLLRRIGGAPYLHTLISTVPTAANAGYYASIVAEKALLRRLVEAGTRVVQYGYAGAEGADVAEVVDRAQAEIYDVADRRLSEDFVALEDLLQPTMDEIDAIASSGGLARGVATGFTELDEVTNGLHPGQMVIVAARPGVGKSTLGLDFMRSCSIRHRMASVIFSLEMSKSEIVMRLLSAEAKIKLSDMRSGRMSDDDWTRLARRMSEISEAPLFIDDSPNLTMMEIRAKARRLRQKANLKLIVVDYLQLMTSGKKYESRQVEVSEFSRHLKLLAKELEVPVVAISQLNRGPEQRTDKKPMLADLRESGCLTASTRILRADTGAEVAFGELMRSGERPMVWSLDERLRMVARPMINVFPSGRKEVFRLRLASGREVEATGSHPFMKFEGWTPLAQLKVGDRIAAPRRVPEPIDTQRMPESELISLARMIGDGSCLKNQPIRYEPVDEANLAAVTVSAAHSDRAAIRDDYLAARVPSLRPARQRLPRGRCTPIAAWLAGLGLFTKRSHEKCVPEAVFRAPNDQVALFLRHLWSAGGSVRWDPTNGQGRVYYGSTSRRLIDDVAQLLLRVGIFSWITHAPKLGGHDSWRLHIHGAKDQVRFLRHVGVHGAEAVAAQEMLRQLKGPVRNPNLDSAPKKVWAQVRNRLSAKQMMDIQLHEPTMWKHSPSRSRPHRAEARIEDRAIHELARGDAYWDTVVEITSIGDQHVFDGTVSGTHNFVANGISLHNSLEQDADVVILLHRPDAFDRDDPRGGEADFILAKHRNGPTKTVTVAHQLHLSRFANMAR

[28] = viability of uninfected HEp-2 cells – cell-based, HTS, cytotoxicity control for RSV inhibitor project, dose response (AID 2410); assay type: functional; conditions: human respiratory syncytial virus
[29] = biological target: Endoplasmic reticulum aminopeptidase 1 (Homo sapiens, UniProt Q9NZ08); assay: inhibition of human ERAP1 enzyme activity – biochemical, cherry-pick, set 2, plate reader, dose response (AID 743314)
Endoplasmic reticulum aminopeptidase 1, sequence (Q9NZ08 whole entry): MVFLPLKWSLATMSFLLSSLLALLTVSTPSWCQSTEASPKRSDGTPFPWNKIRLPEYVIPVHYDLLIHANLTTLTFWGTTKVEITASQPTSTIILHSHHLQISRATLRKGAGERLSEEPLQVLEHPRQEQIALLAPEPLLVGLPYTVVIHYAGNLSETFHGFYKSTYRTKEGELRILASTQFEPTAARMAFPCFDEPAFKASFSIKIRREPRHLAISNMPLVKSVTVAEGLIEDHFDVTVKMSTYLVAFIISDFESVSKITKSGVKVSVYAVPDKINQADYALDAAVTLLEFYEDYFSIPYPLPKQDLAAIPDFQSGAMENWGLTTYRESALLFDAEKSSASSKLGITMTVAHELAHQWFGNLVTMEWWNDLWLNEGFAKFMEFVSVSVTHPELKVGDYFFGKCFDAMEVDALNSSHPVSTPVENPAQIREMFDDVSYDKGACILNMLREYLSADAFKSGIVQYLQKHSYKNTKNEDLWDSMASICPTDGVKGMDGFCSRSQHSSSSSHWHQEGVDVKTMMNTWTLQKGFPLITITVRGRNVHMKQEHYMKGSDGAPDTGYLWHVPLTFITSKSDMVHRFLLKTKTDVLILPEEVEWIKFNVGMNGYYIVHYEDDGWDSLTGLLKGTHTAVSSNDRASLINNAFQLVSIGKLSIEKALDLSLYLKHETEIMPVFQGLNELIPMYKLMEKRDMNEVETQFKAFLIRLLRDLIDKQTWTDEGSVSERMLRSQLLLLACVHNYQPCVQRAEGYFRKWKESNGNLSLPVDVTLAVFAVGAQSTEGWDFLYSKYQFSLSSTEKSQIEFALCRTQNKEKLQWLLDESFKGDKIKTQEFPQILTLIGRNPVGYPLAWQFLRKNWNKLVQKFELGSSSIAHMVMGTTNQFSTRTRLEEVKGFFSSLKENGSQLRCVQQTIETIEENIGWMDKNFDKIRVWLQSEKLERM

T4 sequence (Q96RJ0 whole entry): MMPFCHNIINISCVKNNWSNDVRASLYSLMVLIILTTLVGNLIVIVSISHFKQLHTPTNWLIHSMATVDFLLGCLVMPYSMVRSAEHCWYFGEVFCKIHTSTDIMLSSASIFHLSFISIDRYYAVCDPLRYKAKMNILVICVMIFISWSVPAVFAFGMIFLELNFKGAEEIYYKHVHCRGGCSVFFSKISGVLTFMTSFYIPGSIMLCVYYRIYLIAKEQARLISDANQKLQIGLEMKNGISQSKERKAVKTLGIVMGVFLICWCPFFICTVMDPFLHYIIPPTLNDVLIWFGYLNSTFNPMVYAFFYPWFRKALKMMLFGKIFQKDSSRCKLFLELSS
T1 sequence (Q79MP6 whole entry): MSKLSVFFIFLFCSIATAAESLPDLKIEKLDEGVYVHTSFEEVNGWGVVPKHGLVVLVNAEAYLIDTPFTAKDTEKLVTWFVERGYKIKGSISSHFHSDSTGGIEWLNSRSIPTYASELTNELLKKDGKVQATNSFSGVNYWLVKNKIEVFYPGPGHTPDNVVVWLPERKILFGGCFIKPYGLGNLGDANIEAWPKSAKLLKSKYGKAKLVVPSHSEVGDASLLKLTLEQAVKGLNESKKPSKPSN
Potassium channel subfamily K member 9, sequence (Q9NPC2 whole entry): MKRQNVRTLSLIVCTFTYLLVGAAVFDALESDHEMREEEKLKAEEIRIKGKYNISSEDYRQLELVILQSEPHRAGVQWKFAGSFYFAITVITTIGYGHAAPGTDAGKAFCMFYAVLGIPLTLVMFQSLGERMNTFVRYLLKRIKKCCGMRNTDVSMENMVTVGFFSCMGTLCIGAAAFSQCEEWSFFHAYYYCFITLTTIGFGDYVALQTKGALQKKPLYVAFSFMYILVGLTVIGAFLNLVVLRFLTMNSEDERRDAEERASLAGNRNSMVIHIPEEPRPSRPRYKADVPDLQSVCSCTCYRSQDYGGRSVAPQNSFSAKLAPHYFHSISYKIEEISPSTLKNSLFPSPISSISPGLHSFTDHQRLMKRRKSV
Potassium channel subfamily K member 3, sequence (O14649 whole entry): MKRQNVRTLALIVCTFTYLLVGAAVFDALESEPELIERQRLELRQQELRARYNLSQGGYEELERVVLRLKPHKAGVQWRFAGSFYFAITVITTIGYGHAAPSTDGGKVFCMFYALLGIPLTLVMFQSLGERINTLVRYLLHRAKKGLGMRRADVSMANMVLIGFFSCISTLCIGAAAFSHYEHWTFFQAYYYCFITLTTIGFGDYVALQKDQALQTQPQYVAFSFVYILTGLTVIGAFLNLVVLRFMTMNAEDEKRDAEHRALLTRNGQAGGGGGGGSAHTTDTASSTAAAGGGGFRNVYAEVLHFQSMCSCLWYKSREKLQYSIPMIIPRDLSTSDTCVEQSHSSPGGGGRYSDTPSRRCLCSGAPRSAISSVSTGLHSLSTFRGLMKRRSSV
Potassium voltage-gated channel subfamily KQT member 2, sequence (O88943 whole entry): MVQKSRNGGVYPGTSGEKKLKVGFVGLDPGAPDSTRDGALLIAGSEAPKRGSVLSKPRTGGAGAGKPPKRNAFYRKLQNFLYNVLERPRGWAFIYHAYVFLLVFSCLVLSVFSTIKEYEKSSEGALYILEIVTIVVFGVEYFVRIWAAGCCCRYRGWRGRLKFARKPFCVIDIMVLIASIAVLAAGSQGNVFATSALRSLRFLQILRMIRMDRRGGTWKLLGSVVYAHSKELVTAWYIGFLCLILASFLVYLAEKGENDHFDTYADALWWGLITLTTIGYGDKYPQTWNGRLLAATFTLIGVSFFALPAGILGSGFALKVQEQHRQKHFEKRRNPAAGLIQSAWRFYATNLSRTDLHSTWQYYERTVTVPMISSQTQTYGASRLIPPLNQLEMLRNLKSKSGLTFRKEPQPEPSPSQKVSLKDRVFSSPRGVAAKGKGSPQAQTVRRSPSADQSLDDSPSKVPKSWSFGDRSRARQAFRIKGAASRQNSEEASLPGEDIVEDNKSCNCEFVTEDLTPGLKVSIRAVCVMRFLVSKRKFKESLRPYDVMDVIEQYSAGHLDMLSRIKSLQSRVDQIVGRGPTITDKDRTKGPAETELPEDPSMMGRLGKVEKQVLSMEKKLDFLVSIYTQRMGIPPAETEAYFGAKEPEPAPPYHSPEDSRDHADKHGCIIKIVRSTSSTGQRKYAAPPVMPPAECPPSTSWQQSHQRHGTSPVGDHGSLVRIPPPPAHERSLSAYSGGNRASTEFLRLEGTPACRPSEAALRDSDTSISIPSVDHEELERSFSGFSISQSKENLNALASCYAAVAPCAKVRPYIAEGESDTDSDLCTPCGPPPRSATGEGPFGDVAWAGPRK
Beta-lactamase (Salmonella choleraesuis (strain SC-B67), UniProt Q5J463), sequence (Q5J463 whole entry): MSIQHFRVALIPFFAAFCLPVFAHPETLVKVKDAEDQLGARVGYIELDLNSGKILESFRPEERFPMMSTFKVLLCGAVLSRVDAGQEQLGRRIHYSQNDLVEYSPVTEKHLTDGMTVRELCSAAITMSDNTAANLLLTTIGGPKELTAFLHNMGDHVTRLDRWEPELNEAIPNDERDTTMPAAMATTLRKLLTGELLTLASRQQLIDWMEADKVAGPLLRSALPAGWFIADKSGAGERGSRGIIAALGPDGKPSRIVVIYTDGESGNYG
Galanin receptor type 3, sequence (O60755 whole entry): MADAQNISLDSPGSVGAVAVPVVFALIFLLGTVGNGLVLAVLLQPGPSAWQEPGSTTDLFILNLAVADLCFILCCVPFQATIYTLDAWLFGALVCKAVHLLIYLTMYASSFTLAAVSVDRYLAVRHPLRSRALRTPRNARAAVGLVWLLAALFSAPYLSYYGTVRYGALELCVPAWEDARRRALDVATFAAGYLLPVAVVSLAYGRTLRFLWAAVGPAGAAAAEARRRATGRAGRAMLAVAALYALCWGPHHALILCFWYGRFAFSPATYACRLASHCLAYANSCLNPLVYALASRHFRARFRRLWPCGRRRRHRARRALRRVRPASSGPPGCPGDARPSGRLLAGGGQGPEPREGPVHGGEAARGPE

CN1CCN(C)/C(=N/c2ccc([N+](=O)[O-])cc2C(=O)Nc2ccccc2F)C1
IC50 [1]: 0.15 µM (active)

Cc1c(N/C=C2/C=C(Br)C(=O)OC2=O)c(=O)n(-c2ccccc2)n1C
IC50 [2]: 16 µM (inactive) | IC50 [3]: 3 µM (active)

COc1cnccc1C(=O)Nc1cccc(NC(=O)c2cccc(C)c2)c1
IC50 [4]: 2.43 µM (active) | IC50 [5]: 7.58 µM (active) | IC50 [6]: 0.18 µM (active)

Cn1ccnc1SCC(=O)Nc1ccc2nc(SCC(=O)NC3CC3)sc2c1
IC50 [7]: > 59.6 µM (inactive) | IC50 [8]: 0.843 µM (active) | IC50 [9]: > 59.6 µM (inactive) | IC50 [10]: > 59.6 µM (inactive) | IC50 [11]: 25.7 µM (active) | IC50 [12]: 4.29 µM (active)

Cc1cc(Br)cn2c(Cc3ccccc3C(F)(F)F)c(-c3ccco3)nc12
EC50 [13]: > 29.9 µM (inactive) | IC50 [14]: 14.5 µM (inactive)

C[C@@H]1CCCCO[C@H](CN(C)CC2CCCCC2)[C@H](C)CN([C@@H](C)CO)C(=O)c2cc(NC(=O)Nc3ccc(C(F)(F)F)cc3)ccc2O1
AC50 [15]: 2.85 µM (active) | AC50 [16]: 4.83 µM (active)

COc1ccc(/C=C\C(=O)NCc2ccc3c(c2)cc(C)n3C)cc1OC
IC50 [17]: 40.3 µM (inactive) | IC50 [18]: > 138 µM (inactive)

CC(C)[C@H](NC(=O)C1CCCC1)C(=O)N1CCC[C@H]1C(=O)NCCc1ccccc1Cl
IC50 [19]: 3.8 µM (active) | EC50 [20]: > 29.9 µM (inactive) | EC50 [21]: 0.897 µM (active) | IC50 [22]: > 29.9 µM (inactive)

COc1ccc(-c2csc(CCN3N=C(C)CC3=O)n2)cc1
IC50 [23]: 12.1 µM (active) | EC50 [24]: 1.54 µM (active) | IC50 [25]: 100 µM (inactive) | IC50 [26]: 14.6 µM (active) | AC50 [27]: 3.27 µM (active)

COc1ccc(-c2cc3ccc(O)cc3oc2=O)cc1
CC50 [28]: 49.4 µM (active) | AC50 [29]: 3.06 µM (active)
